Experiments:
MDR [1] = assay: Efflux ratio of apparent permeability in MDCK cells expressing MDR; type: ADME, cell-based, Canis lupus familiaris; settings: dog, MDCK-MDR1
[2] = Intrinsic clearance in rat liver microsomes; type: ADME, Microsome; settings: read-out: CLH
[3] = Intrinsic clearance in human liver microsomes; type: ADME, Microsome; settings: read-out: CLH
P2X purinoceptor 7 [4] = target: T1, P2X purinoceptor 7 (Homo sapiens, UniProt Q99572); assay: Antagonist activity at P2X7R in LPS-stimulated human THP1 cells assessed as inhibition of BzATP-induced IL-1beta release preincubated for 30 mins followed by BzATP stimulation and measured after 30 mins by sandwich ELISA
T1 sequence (Q99572 whole entry): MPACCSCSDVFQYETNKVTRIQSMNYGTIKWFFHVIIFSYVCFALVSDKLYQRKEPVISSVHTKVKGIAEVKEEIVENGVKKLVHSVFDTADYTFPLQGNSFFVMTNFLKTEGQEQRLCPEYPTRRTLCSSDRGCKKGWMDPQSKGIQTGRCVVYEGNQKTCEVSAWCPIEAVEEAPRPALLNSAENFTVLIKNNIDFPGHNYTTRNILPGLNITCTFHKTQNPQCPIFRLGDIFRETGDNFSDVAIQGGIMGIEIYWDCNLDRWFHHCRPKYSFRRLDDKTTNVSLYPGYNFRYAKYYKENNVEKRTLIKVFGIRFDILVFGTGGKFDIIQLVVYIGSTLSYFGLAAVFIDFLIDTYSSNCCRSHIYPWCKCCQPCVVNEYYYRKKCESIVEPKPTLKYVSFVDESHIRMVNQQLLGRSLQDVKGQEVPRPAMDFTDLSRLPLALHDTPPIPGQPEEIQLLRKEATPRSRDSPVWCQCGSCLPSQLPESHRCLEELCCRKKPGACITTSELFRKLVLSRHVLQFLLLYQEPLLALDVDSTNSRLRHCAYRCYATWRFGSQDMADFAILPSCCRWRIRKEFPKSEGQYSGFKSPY

MDR [5] = assay: Apparent permeability across apical to basolateral side in MDCK cells expressing MDR; type: ADME, cell-based, Canis lupus familiaris; settings: dog, MDCK-MDR1
P2X purinoceptor 7 [6] = target: T1, P2X purinoceptor 7; assay: Antagonist activity at human P2X7 receptor expressed in HEK293 cells assessed as inhibition of BzATP-induced YO PRO dye uptake preincubated for 20 mins followed by YO PRO dye and BzATP addition measured after 30 mins by fluorescence assay; type: cell-based
[7] = Intrinsic clearance in mouse liver microsomes; type: ADME, Microsome; settings: read-out: CLH
P2X purinoceptor 7 [8] = target: T2, P2X purinoceptor 7 (Rattus norvegicus, UniProt Q64663); assay: Antagonist activity at rat P2X7 receptor assessed as inhibition of BzATP-induced YO PRO dye uptake preincubated for 20 mins followed by YO PRO dye and BzATP addition measured after 30 mins by fluorescence assay
T2 sequence (Q64663 whole entry): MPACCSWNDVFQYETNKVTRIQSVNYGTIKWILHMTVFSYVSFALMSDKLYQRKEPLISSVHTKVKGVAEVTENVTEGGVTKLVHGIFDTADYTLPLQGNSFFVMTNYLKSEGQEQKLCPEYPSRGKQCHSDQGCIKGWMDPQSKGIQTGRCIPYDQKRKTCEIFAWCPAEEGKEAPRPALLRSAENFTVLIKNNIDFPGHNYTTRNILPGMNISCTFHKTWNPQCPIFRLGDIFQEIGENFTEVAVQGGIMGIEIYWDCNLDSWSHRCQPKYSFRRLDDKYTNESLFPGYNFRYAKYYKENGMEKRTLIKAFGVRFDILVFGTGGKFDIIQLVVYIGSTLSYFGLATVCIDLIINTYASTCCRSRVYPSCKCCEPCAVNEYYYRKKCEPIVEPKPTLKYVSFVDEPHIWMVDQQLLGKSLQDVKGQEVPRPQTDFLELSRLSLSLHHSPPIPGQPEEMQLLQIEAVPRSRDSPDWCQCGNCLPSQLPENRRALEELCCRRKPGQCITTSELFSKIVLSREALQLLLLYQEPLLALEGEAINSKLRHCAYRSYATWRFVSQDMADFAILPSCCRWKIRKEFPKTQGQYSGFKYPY

P2X purinoceptor 7 [9] = target: T3, P2X purinoceptor 7 (Mus musculus, UniProt Q9Z1M0); assay: Antagonist activity at mouse P2X7 receptor assessed as inhibition of BzATP-induced YO PRO dye uptake preincubated for 20 mins followed by YO PRO dye and BzATP addition measured after 30 mins by fluorescence assay
T3 sequence (Q9Z1M0 whole entry): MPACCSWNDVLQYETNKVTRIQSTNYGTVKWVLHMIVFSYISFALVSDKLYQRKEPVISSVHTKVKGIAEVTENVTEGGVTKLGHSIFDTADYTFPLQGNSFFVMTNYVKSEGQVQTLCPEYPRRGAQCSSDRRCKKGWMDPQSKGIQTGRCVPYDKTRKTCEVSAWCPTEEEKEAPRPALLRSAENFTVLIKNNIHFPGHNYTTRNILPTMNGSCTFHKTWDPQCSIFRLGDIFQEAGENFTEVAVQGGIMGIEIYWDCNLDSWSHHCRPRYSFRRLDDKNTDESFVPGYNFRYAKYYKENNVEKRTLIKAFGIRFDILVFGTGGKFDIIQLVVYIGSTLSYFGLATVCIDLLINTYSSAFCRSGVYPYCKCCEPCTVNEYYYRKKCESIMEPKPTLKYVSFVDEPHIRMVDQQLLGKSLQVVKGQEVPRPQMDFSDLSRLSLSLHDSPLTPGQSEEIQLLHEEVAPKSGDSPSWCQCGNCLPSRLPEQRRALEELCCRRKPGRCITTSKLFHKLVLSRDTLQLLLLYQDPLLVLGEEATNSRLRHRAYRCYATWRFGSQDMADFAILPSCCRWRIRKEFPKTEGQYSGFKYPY

[10] = Protein binding in rat plasma assessed as unbound fraction; type: ADME, cell-free
[11] = Volume of distribution in mouse at 0.2 mg/kg, iv or 0.5 mg/kg, po; type: ADME, organism-based; settings: in vivo
[12] = AUC in mouse plasma at 5 mg/kg, po; type: ADME, organism-based
[13] = target: Voltage-gated inwardly rectifying potassium channel KCNH2 (Homo sapiens, UniProt Q12809); assay: Activity at human ERG
Sequence of Voltage-gated inwardly rectifying potassium channel KCNH2 (Q12809 whole entry): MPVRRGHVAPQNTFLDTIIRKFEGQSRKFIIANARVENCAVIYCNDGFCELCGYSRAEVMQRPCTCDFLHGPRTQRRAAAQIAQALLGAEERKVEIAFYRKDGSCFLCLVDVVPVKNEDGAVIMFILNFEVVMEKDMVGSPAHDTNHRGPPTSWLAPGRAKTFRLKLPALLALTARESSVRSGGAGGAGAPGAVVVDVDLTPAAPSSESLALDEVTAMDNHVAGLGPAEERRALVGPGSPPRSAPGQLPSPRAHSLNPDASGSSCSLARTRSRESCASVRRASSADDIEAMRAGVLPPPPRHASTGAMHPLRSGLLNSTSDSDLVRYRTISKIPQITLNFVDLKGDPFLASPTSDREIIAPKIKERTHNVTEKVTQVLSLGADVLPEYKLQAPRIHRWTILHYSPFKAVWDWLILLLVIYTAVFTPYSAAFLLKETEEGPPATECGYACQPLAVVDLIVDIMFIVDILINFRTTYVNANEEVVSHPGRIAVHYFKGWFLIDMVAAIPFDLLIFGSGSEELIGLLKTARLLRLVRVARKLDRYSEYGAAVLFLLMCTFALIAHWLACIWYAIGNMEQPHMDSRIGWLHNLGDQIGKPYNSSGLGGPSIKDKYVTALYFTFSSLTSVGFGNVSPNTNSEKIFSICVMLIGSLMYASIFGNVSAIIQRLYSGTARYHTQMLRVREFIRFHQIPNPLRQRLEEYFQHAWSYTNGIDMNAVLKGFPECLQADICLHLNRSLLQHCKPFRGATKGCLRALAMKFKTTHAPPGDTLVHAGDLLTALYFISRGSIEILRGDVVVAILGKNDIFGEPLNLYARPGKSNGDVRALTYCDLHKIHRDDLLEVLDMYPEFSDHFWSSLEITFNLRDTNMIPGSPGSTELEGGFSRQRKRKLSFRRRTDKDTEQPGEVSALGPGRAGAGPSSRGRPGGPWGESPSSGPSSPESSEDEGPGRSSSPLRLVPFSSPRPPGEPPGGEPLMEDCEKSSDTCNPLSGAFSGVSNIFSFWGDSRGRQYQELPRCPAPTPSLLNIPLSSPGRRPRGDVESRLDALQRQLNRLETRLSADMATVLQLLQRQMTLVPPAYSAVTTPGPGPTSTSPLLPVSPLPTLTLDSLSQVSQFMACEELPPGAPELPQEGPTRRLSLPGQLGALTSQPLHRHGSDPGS

[14] = Dose normalized AUC in mouse at 0.2 mg/kg, iv; type: ADME, organism-based; settings: in vivo
[15] = Protein binding in mouse brain assessed as unbound fraction at 5 mg/kg, po; type: ADME, organism-based
[16] = Protein binding in human plasma; type: ADME, cell-free; settings: read-out: PPB
[17] = AUC in mouse brain at 5 mg/kg, po; type: ADME, organism-based
[18] = Dose normalized AUC in mouse at 0.5 mg/kg, po; type: ADME, organism-based; settings: in vivo
[19] = Oral bioavailability in mouse at 0.5 mg/kg; type: ADME, organism-based; settings: in vivo
[20] = Protein binding in rat plasma; type: ADME, cell-free; settings: read-out: PPB
[21] = Dose normalized Cmax in mouse at 0.2 mg/kg, iv; type: ADME, organism-based; settings: in vivo
[22] = Protein binding in human plasma assessed as unbound fraction; type: ADME, cell-free
[23] = Protein binding in mouse plasma assessed as unbound fraction; type: ADME, cell-free
[24] = Terminal half life in mouse at 0.2 mg/kg, iv or 0.5 mg/kg, po; type: ADME, organism-based; settings: in vivo, read-out: beta t1/2 (converted)
[25] = Protein binding in mouse plasma; type: ADME, cell-free; settings: read-out: PPB
[26] = Clearance in mouse at 0.2 mg/kg, iv or 0.5 mg/kg, po; type: ADME, organism-based; settings: in vivo
[27] = Dose normalized Cmax in mouse at 0.5 mg/kg, po; type: ADME, organism-based; settings: in vivo
[28] = Unbound brain to plasma concentration ratio in mouse at 5 mg/kg, po; type: ADME, organism-based; settings: read-out: K(p,uu,brain)
[29] = Protein binding in mouse plasma assessed as unbound fraction at 5 mg/kg, po; type: ADME, organism-based

efflux ratio (MDR [1]) | microsomal CLint [2] [µL/min/mg] | microsomal CLint [3] [µL/min/mg] | IC50 (P2X purinoceptor 7 [4]) [nM] | Papp A→B (MDR [5]) [×10⁻⁶ cm/s] | IC50 (P2X purinoceptor 7 [6]) [nM] | microsomal CLint [7] [µL/min/mg] | IC50 (P2X purinoceptor 7 [8]) [nM] | IC50 (P2X purinoceptor 7 [9]) [nM] | Structure (SMILES) | also measured
0.69 | 31 | 12 | 104 | 18.4 | 19 | 10 | – | – | O=C(NCC1CCC(F)(F)CC1)c1c(Cl)ccc2nc(N3CC[C@@H](F)C3)ccc12 | –
8.7 | 31 | 50 | 36.4 | 6.8 | 19 | 48 | 4300 | 4830 | O=C(NC[C@]1(O)CCCC(F)(F)C1)c1c(Cl)ccc2nc(N3CC[C@@H](F)C3)ccc12 | –
39 | 32 | 44 | 6 | 1.4 | 3.6 | 52 | 549 | 2000 | C[C@@H]1CCC[C@@](O)(CNC(=O)c2c(Cl)ccc3nc(N4CCC(N(C)C)C4)ccc23)C1 (stereo partly specified) | –
34 | 10 | 75 | 7.4 | 1.5 | 14 | 68 | 130 | 3690 | C[C@@H]1CCC[C@@](O)(CNC(=O)c2c(Cl)ccc3nc(N4CC[C@@H](C(C)(C)O)C4)ccc23)C1 | –
0.85 | 21 | 10 | 109 | 14.1 to 14.4 | 8.2 | 49 | 5100 | 2040 | O=C(NCC1CCC(F)(F)CC1)c1c(Cl)ccc2nc(N3CC[C@H](F)C3)ccc12 | fraction unbound [10]: 0.041; Vd [11]: 1.81 L/kg; AUC [12]: 84.7 ng·h/mL; Activity [13]: 30 µM; AUC/dose [14]: 238 ng·h/mL; fraction unbound [15]: 0.03; fraction unbound [16]: 0.03 to 0.1; AUC [17]: 30.9 ng·h/mL; AUC/dose [18]: 72.9 ng·h/mL; bioavailability [19]: 31%; fraction unbound [20]: 0.03 to 0.1; Cmax/dose [21]: 545 ng/mL; fraction unbound [22]: 0.055; fraction unbound [23]: 0.03; half-life [24]: 28.8 min; fraction unbound [25]: 0.03 to 0.1; clearance [26]: 69.8 mL/min/kg; Cmax/dose [27]: 75.1 ng/mL; Kp uu [28]: 0.37; fraction unbound [29]: 0.03
3.8 | 46 | 32 | 100 | 16.5 | 47 | 23 | – | – | O=C(NCC1CCC(F)(F)CC1)c1c(Cl)ccc2nc(N3CCC(CCO)C3)ccc12 (stereo unspecified) | –
– | – | – | 76 | – | 72 | – | – | – | O=C(NCC1CCC(F)(F)CC1)c1c(Cl)ccc2nc(NCCO)ccc12 | –
114 | 10 | 17 | 12 | 0.18 | 10 | 10 | – | – | O=C(NCC1CCC(F)(F)CC1)c1c(Cl)ccc2nc(N3CCC(NCCO)C3)ccc12 (stereo unspecified) | –
6.9 | 25 | 80 | 75 | 6 | 50 | 24 | – | – | CN(C)[C@H]1CCN(c2ccc3c(C(=O)NCC4CCC(F)(F)CC4)c(Cl)ccc3n2)C1 | –

From ChEMBL document CHEMBL4340547, “Synthesis and SAR development of quinoline analogs as novel P2X7 receptor antagonists” (Bioorg Med Chem Lett, 2019)
